# Measured values from patent US6538019B1, “Functional emulsions” (Japan as represented by Director of National Food Research …, priority 2000, dated 2003).
# What was measured:
# [1] = cited from earlier work
# [2] = Stability of the emulsion (time to phase separation of E/O emulsion); type: physicochemical; settings: concentration of the emulsifying agent 5%; ratio of triolein and ethanol 8:2
# Experimental: First, sunflower seed oil (having the triolein purity 90% or more, as produced by Nippon Lever B. V.) as a continuous phase, 95% ethanol as a dispersed phase, and polyglycerol oleic acid ester (MO750, HLB12.9) as an emulsifying agent (surfactant) were prepared.
# Next, polyphenol was dissolved in ethanol. As the polyphenol to be used, catechin, anthocyanin, quercetin can be listed.
# Thereafter, the ethanol, to which 1 wt % polyglycerol oleic acid ester (PG) was added, and triolein (sunflower seed oil) were stirred at 3000 rpm for ten minutes with a homogenizer (Polytron: PT3000), thereby attempting the production of an emulsion.
# Furthermore, the possibility of using emulsifying agents other than polyglycerol oleic acid ester (PG) was examined. In Table 2, DAO750 indicates decaglycerol decaester, PO500 indicates hexaglycerol pentaester, PO310 indicates tetraglycerol pentaester, MO310 indicates tetraglycerol monoester, MO500 indicates hexaglycerol monoester, and MO750 indicates polyglycerol oleic acid ester.
# [3] = Stability of the emulsions examined by a turbidity method; type: physicochemical; settings: addition amount of PG varied within 1 wt %-5 wt %
# Text: Next, the addition amount of polyglycerol oleic acid ester (PG) was variously changed within the range of 1 wt %-5 wt % and the stability of the emulsions was examined by a turbidity method.
# [4] = Dispersion behavior by small-angle X-ray scattering method (SAXS); type: physicochemical
# Text: Further, the dispersion behavior of the polyglycerol oleic acid ester (PG) was examined using a small-angle X-ray scattering method (SAXS). It turned out that the polyglycerol oleic acid ester (PG) in ethanol was a molecular assembly having the radius of inertia of about 7 Å and the polyglycerol oleic acid ester (PG) in triolein was a molecular assembly having the radius of inertia of about 90 Å. As a result, it can be said that the stability of emulsions can be achieved by increasing the ratio of triolein with respect to ethanol.
Substance,Solubility with respect to water [1],Stability of E/O emulsion by emulsifying agent [2],Change in emulsion stability [3],Radius of inertia of molecular assembly ([4]; in ethanol),Radius of inertia of molecular assembly ([4]; in triolein)
anthocyanin,slightly soluble in water,,,,
polyglycerol oleic acid ester [MO750],,+++ (The sample did not cause the phase separation until five months.),A conspicuous change in emulsion stability was not found,about 7 Å,about 90 Å
